Data published in patent US6737383B1, “Herbicidal oxadiazolidines” (priority 1999, dated 2004).

Tests used:
surinam grass = assay: Test B pre/postemergence surinam grass; assay type: in vivo, Brachiaria decumbens
How it was run: (§1)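 Response is a visual 0-to-10 score relative to untreated plants, where 0 means no effect and 10 means complete control, taken twelve to sixteen days after application. Treatments went onto soil at planting and onto foliage of 1- to 4-leaf plants, using a surfactant-containing non-phytotoxic solvent.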

velvetleaf = assay: Test B pre/postemergence velvetleaf; assay type: in vivo, Abutilon theophrasti
How it was run: as §1

wheat = assay: Test B pre/postemergence wheat; assay type: in vivo, Triticum aestivum
How it was run: as §1

corn = assay: Test B pre/postemergence corn; assay type: in vivo, Zea mays
How it was run: as §1

duck salad = assay: Test B flood test duck salad; assay type: in vivo, Heteranthera limosa
How it was run: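 Plants were grown to the 2-leaf stage before treatment with test chemical, then held in a greenhouse for twelve to sixteen days. Injury was visually rated against untreated controls on a 0–10 scale, where 0 is no effect and 10 is complete control.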

cocklebur = assay: Test B pre/postemergence cocklebur; assay type: in vivo, Xanthium strumarium
How it was run: as §1

giant foxtail = assay: Test B pre/postemergence giant foxtail; assay type: in vivo, Setaria faberii
How it was run: as §1

soybean = assay: Test B pre/postemergence soybean; assay type: in vivo, Glycine max
How it was run: as §1

bedstraw = assay: Test B pre/postemergence bedstraw; assay type: in vivo, Galium aparine
How it was run: as §1

crabgrass = assay: Test B pre/postemergence crabgrass; assay type: in vivo, Digitaria sanguinalis
How it was run: as §1

morningglory = assay: Test B pre/postemergence morningglory; assay type: in vivo, Ipomoea hederacea
How it was run: as §1

purple nutsedge = assay: Test B pre/postemergence purple nutsedge; assay type: in vivo, Cyperus rotundus
How it was run: as §1

rape = assay: Test B pre/postemergence rape; assay type: in vivo, Brassica napus
How it was run: as §1

pigweed = assay: Test B pre/postemergence pigweed; assay type: in vivo, Amaranthus retroflexus
How it was run: as §1

sugar beet = assay: Test B pre/postemergence sugar beet; assay type: in vivo, Beta vulgaris
How it was run: as §1

[1] = Preemergence, Rate 62 g/ha, scale of 0 to 10 where 0 is no effect and 10 is complete control
[2] = Preemergence, Rate 250 g/ha, scale of 0 to 10 where 0 is no effect and 10 is complete control
[3] = Preemergence, Rate 500 g/ha, scale of 0 to 10 where 0 is no effect and 10 is complete control
[4] = Rate 62 g/ha, Postemergence, scale 0 to 10 (0 no effect, 10 complete control)
[5] = Rate 125 g/ha, Postemergence, scale of 0 to 10 where 0 is no effect and 10 is complete control
[6] = Rate 250 g/ha, Postemergence, scale of 0 to 10 where 0 is no effect and 10 is complete control
[7] = Rate 500 g/ha, Postemergence, scale 0 to 10, 0 no effect, 10 complete control

SMILES: C=CCn1c(=O)on(C(=O)N(c2ccc(Cl)cc2)C(C)C2CC2)c1=O (centres unmarked) [Compound 325]
- B. signalgrass plant response rating (surinam grass; [1]): 0
- B. signalgrass plant response rating (0 to 10 scale, 0 is no effect, 10 is complete control) (surinam grass; Preemergence, Rate 125 g/ha): 0
- B. signalgrass plant response rating (surinam grass; [2]): 0
- B. signalgrass plant response rating (surinam grass; [3]): 0
- B. signalgrass plant response rating (surinam grass; [4]): 0
- B. signalgrass plant response rating (surinam grass; [5]): 0
- Plant response rating, B. signalgrass (surinam grass; [6]): 0
- Plant response rating, B. signalgrass (surinam grass; [7]): 2
- Velvetleaf plant response rating (velvetleaf; [1]): 0
- Velvetleaf plant response rating (0 to 10 scale) (velvetleaf; Preemergence, Rate 125 g/ha): 0
- Velvetleaf plant response rating (velvetleaf; [2]): 0
- Velvetleaf plant response rating (velvetleaf; [3]): 0
- Velvetleaf plant response rating (velvetleaf; [4]): 0
- Velvetleaf plant response rating (velvetleaf; [5]): 0
- Plant response rating, Velvetleaf (velvetleaf; [6]): 0
- Plant response rating, Velvetleaf (velvetleaf; [7]): 2
- Wheat plant response rating (wheat; [1]): 0
- Wheat plant response rating (0 to 10 scale) (wheat; Preemergence, Rate 125 g/ha): 0
- Wheat plant response rating (wheat; [2]): 0
- Wheat plant response rating (wheat; [3]): 0
- Wheat plant response rating (wheat; [4]): 0
- Wheat plant response rating (wheat; [5]): 0
- Plant response rating, Wheat (wheat; [6]): 2
- Plant response rating, Wheat (wheat; [7]): 5
- Corn plant response rating (corn; [1]): 0
- Corn plant response rating (0 to 10 scale) (corn; Preemergence, Rate 125 g/ha): 0
- Corn plant response rating (corn; [2]): 0
- Corn plant response rating (corn; [3]): 0
- Corn plant response rating (corn; [4]): 0
- Corn plant response rating (corn; [5]): 0
- Plant response rating, Corn (corn; [6]): 0
- Plant response rating, Corn (corn; [7]): 0
- Ducksalad plant response rating (duck salad; Rate 62 g/ha, headed Pre-emergence (flood test species), scale 0 to 10 (0 no effect, 10 complete control)): 0
- Ducksalad plant response rating (duck salad; Rate 125 g/ha, Pre-emergence, flood test species, scale 0 to 10 where 0 is no effect and 10 is complete control): 0
- Ducksalad plant response rating (duck salad; Rate 250 g/ha, Pre-emergence, flood-test species, scale 0 to 10, 0 is no effect, 10 is complete control): 0
- Ducksalad plant response rating (duck salad; Rate 500 g/ha, Pre-emergence, flood test species, scale 0 to 10 (0 no effect, 10 complete control)): 0
- Cocklebur plant response rating (cocklebur; [1]): 0
- Cocklebur plant response rating (0 to 10 scale) (cocklebur; Preemergence, Rate 125 g/ha): 0
- Cocklebur plant response rating (cocklebur; [2]): 0
- Cocklebur plant response rating (cocklebur; [3]): 0
- Cocklebur plant response rating (cocklebur; [4]): 0
- Cocklebur plant response rating (cocklebur; [5]): 0
- Plant response rating, Cocklebur (cocklebur; [6]): 0
- Plant response rating, Cocklebur (cocklebur; [7]): 3
- Giant foxtail plant response rating (giant foxtail; [1]): 3
- Giant foxtail plant response rating (0 to 10 scale) (giant foxtail; Preemergence, Rate 125 g/ha): 7
- Giant foxtail plant response rating (giant foxtail; [2]): 8
- Giant foxtail plant response rating (giant foxtail; [3]): 10
- Giant foxtail plant response rating (giant foxtail; [4]): 0
- Giant foxtail plant response rating (giant foxtail; [5]): 0
- Plant response rating, Giant foxtail (giant foxtail; [6]): 0
- Plant response rating, Giant foxtail (giant foxtail; [7]): 0
- Soybean plant response rating (soybean; [1]): 0
- Soybean plant response rating (0 to 10 scale) (soybean; Preemergence, Rate 125 g/ha): 0
- Soybean plant response rating (soybean; [2]): 0
- Soybean plant response rating (soybean; [3]): 0
- Soybean plant response rating (soybean; [4]): 2
- Soybean plant response rating (soybean; [5]): 2
- Plant response rating, Soybean (soybean; [6]): 1
- Plant response rating, Soybean (soybean; [7]): 3
- Bedstraw plant response rating (bedstraw; [1]): 0
- Bedstraw plant response rating (0 to 10 scale) (bedstraw; Preemergence, Rate 125 g/ha): 0
- Bedstraw plant response rating (bedstraw; [2]): 0
- Bedstraw plant response rating (bedstraw; [3]): 0
- Bedstraw plant response rating (bedstraw; [4]): 2
- Bedstraw plant response rating (bedstraw; [5]): 8
- Crabgrass plant response rating (crabgrass; [1]): 0
- Crabgrass plant response rating (0 to 10 scale) (crabgrass; Preemergence, Rate 125 g/ha): 0
- Crabgrass plant response rating (crabgrass; [2]): 1
- Crabgrass plant response rating (crabgrass; [3]): 2
- Crabgrass plant response rating (crabgrass; [4]): 0
- Crabgrass plant response rating (crabgrass; [5]): 0
- Plant response rating, Crabgrass (crabgrass; [6]): 0
- Plant response rating, Crabgrass (crabgrass; [7]): 0
- Morningglory plant response rating (morningglory; [1]): 0
- Morningglory plant response rating (0 to 10 scale) (morningglory; Preemergence, Rate 125 g/ha): 0
- Morningglory plant response rating (morningglory; [2]): 0
- Morningglory plant response rating (morningglory; [3]): 0
- Morningglory plant response rating (morningglory; [4]): 4
- Morningglory plant response rating (morningglory; [5]): 6
- Plant response rating, Morningglory (morningglory; [6]): 8
- Plant response rating, Morningglory (morningglory; [7]): 8
- Nutsedge plant response rating (purple nutsedge; [1]): 0
- Nutsedge plant response rating (0 to 10 scale) (purple nutsedge; Preemergence, Rate 125 g/ha): 0
- Nutsedge plant response rating (purple nutsedge; [2]): 0
- Nutsedge plant response rating (purple nutsedge; [4]): 0
- Nutsedge plant response rating (purple nutsedge; [5]): 0
- Plant response rating, Nutsedge (purple nutsedge; [6]): 0
- Plant response rating, Nutsedge (purple nutsedge; [7]): 0
- Rape plant response rating (rape; [1]): 0
- Rape plant response rating (0 to 10 scale) (rape; Preemergence, Rate 125 g/ha): 0
- Rape plant response rating (rape; [2]): 0
- Rape plant response rating (rape; [3]): 0
- Rape plant response rating (rape; [4]): 0
- Rape plant response rating (rape; [5]): 0
- Plant response rating, Rape (rape; [6]): 0
- Plant response rating, Rape (rape; [7]): 2
- Redroot pigweed plant response rating (pigweed; [1]): 0
- Redroot pigweed plant response rating (0 to 10 scale) (pigweed; Preemergence, Rate 125 g/ha): 0
- Redroot pigweed plant response rating (pigweed; [2]): 0
- Redroot pigweed plant response rating (pigweed; [3]): 0
- Redroot pigweed plant response rating (pigweed; [4]): 0
- Redroot pigweed plant response rating (pigweed; [5]): 0
- Plant response rating, Redroot pigweed (pigweed; [6]): 4
- Plant response rating, Redroot pigweed (pigweed; [7]): 7
- Sugarbeets plant response rating (sugar beet; [1]): 0
- Sugarbeets plant response rating (0 to 10 scale) (sugar beet; Preemergence, Rate 125 g/ha): 0
- Sugarbeets plant response rating (sugar beet; [2]): 0
- Sugarbeets plant response rating (sugar beet; [3]): 0
- Sugarbeets plant response rating (sugar beet; [4]): 0
- Sugarbeets plant response rating (sugar beet; [5]): 0
- Plant response rating, Sugarbeets (sugar beet; [6]): 0
- Plant response rating, Sugarbeets (sugar beet; [7]): 0
